Patent publication US20100076022A1, “NOVEL POLYMORPHS OF RIMONABANT” (HETERO DRUGS LIMITED, priority 2006, published 2010)

Columns and labels:
[1] = stability of the solid form over time; format: physicochemical; conditions: test conditions not given
[2] = dissolution rate of the solid form; format: physicochemical; conditions: amorphous form compared with crystalline form; test conditions not given

| SMILES | stability [1] | dissolution rate [2] |
| --- | --- | --- |
| Cc1c(C(=O)NN2CCCCC2)nn(-c2ccc(Cl)cc2Cl)c1-c1ccc(Cl)cc1 [amorphous rimonabant form] | highly stable | better dissolution rate |
| Cc1c(C(=O)NN2CCCCC2)nn(-c2ccc(Cl)cc2Cl)c1-c1ccc(Cl)cc1.O [crystalline rimonabant hydrate] | stable over time | – |
